A short description of data set [1]: Tmax after oral administration at 30 mg/kg in ICR mouse. It counts as ADME, organism-based. More on the design: dose 30 mg/kg, route oral. The conditions noted are these: in vivo.
Data set [2] is described as follows: AUC (0-6 hr) after oral administration at 30 mg/kg in ICR mouse. Further details: time < 6 hr, route oral, dose 30 mg/kg. It is filed as ADME, organism-based. To be noted: plasma.
The next data set concerns Mus musculus. As to the kind of experiment: Cmax after oral administration at 30 mg/kg in ICR mouse. It counts as ADME, organism-based. More on the design: dose 30 mg/kg, route oral. To be noted: in vivo.
In data set [3] the target is T1, Retinoic acid receptor gamma (Homo sapiens, UniProt P13631).
T1 sequence (P13631 whole entry): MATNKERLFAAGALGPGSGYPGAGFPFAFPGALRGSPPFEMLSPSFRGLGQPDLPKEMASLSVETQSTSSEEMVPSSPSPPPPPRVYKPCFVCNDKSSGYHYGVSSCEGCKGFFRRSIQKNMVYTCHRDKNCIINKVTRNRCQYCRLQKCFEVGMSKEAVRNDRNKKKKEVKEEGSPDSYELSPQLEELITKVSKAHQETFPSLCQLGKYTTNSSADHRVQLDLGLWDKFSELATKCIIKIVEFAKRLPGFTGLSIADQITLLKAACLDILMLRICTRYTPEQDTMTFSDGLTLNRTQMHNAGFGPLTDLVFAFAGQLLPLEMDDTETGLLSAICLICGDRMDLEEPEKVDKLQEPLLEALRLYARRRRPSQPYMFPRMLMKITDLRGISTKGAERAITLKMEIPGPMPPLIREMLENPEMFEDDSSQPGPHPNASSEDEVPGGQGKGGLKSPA
Kind of data set: Inhibition of 3[H]ATRA binding to retinoid acid receptor gamma expressed in CV-1 cells. It is filed as cell-based.

The next data set is filed under the species Homo sapiens. As to the kind of experiment: Synergistic activation of retinoid acid receptor (RAR) transcriptional activation at 3 nM TTNPB. It is filed as functional.
In the next data set the target is RXR alpha/PPAR gamma (Homo sapiens, UniProt P19793). Kind of data set: Synergistic activation of BRL-49653 mediated PPAR gamma and retinoid X receptor alpha expressed in CV-1 cell transcriptional activation assay. It is filed as functional, cell-based.
Data set [4] addresses T2, Retinoic acid receptor RXR-alpha (Homo sapiens, UniProt P19793).
T2 sequence (P19793 whole entry): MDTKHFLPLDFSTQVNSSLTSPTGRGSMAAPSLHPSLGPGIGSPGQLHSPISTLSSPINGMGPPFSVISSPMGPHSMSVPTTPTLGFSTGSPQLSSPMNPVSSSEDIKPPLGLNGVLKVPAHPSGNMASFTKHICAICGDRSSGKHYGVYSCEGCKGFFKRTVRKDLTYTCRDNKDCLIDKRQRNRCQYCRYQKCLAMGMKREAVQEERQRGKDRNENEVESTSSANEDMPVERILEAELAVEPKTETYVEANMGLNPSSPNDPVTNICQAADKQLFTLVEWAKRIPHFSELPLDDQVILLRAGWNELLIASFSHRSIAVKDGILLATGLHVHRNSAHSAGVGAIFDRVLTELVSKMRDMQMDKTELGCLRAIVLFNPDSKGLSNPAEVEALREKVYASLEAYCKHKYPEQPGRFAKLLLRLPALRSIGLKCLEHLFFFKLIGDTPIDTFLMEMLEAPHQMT
As to the kind of experiment: Inhibition of 3[H]9-cis-retinoic acid binding to Retinoic acid receptor RXR-alpha expressed in CV-1 cells. It is filed as cell-based.

For data set [5], the target named is T2, Retinoic acid receptor RXR-alpha. As to the kind of experiment: Antagonist activity against Retinoic acid receptor RXR-alpha expressed in CV-1 cell transcriptional activation assay. It counts as functional, cell-based.
Data set [6] has the same target. Kind of data set: Agonist activity against Retinoic acid receptor RXR-alpha expressed in CV-1 cell transcriptional activation assay. It is filed as functional, cell-based.

pEC50, pKi: −log10 of the molar value.

Chain of RXR alpha/PPAR gamma (P37231 whole entry, one chain of several): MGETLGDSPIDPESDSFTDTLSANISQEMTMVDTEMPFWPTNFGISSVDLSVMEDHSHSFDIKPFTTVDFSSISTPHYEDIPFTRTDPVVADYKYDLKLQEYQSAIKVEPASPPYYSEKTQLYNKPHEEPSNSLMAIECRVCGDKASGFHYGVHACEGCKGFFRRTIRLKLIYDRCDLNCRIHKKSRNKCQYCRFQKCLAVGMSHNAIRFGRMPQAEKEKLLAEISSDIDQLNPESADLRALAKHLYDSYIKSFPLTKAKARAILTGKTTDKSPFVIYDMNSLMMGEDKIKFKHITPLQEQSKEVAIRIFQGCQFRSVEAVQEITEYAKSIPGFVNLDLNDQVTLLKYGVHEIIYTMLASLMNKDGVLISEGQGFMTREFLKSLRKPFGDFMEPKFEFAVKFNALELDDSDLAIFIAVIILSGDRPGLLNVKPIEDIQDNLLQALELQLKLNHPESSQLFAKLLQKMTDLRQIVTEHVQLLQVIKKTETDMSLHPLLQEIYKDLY

For the compound `C/C(=C/C=C/C(C)=C/C(=O)O)c1cc(C(C)(C)C)cc(C(C)(C)C)c1OCC(F)F`, the Tmax in [1] was found to be 1 h. The compound further registered an AUC(0-t) at 6 h in data set [2] of 2090 ng·h/mL. Further, the Cmax in the data set with Mus musculus was 1200 ng/mL. The pKi in data set [3] is less than 5.00. For the same compound, in the data set listed under Homo sapiens, the Synergy was determined as 1.4.

In the case of `CCCCOc1c(\C(C)=C/C=C/C(C)=C/C(=O)O)cc(C(C)(C)C)cc1C(C)(C)C`, the pEC50 is 8.04 at RXR alpha/PPAR gamma and 8.48 in data set [5]. The pKi in data set [3] is less than 5.00; in [4], 8.42. In addition, in the data set listed under Homo sapiens, the Synergy worked out at 1.2.

In data set [3], `CCOc1c(\C(C)=C/C=C/C(C)=C/C(=O)O)cc(C(C)(C)C)cc1C(C)(C)C` gave a pKi of 5.07. Moreover, in [5], the pEC50 was 8.19. In addition, the Synergy in the data set listed under Homo sapiens is 2.

`C/C(=C/C=C(F)/C(C)=C/C(=O)O)c1cc(C(C)(C)C)cc(C(C)(C)C)c1OCC(F)F`: the pEC50 on RXR alpha/PPAR gamma was 6.84; in [5] it was 5.31. The pKi in data set [3] is less than 5.00. The Synergy in the data set filed under Homo sapiens was 2.5.

Regarding `C/C(=C/C=C/C(C)=C(\F)C(=O)O)c1cc(C(C)(C)C)cc(C(C)(C)C)c1OCC(F)F`, the pEC50 on RXR alpha/PPAR gamma is 8.57; in [5] it was 8.47. Further, the pKi in data set [3] was less than 5.00; in [4], 7.97. Moreover, the Synergy in the data set filed under Homo sapiens is 1.5.

In the case of `CCCCOc1c(\C(C)=C/C=C/C(=C/C(=O)O)C(F)(F)F)cc(C(C)(C)C)cc1C(C)(C)C`, the values for the pEC50 (at RXR alpha/PPAR gamma; in data set [5]) were 6.44 and 6.09, respectively. For the same compound, the figures for the pKi in data set [3] and in data set [4] were less than 5.00 and 5.28, respectively. For the same compound, the Synergy in the data set filed under Homo sapiens is 1.3.

As for `C/C(=C/C(F)=C/C(C)=C/C(=O)O)c1cc(C(C)(C)C)cc(C(C)(C)C)c1OCC(F)F`, the pEC50 at RXR alpha/PPAR gamma is 6.60; in data set [6], 6.59; in [5], 5.06. The same compound gave a pKi in [3] of less than 5.00. The Synergy in the data set filed under Homo sapiens came out at 8.9.

As to `CCOc1c(\C(=C/C=C/C(C)=C/C(=O)O)C(F)(F)F)cc(C(C)(C)C)cc1C(C)(C)C`, the negative logarithm of the EC50 (pEC50) on RXR alpha/PPAR gamma was 6.78; in data set [5], 7.42. The same compound showed a pKi in [4] of 7.30. Moreover, in the data set listed under Homo sapiens, the Synergy was found to be 7.

Regarding `CC(/C=C/C(F)=C(/C)c1cc(C(C)(C)C)cc(C(C)(C)C)c1OCC(F)F)=C\C(=O)O`, the Tmax in [1] was determined as 3 h. The AUC(0-t) at 6 h in [2] stood at 17800 ng·h/mL. This compound registered a Cmax in the data set with Mus musculus of 3690 ng/mL. The pEC50 at RXR alpha/PPAR gamma is 8.19; in data set [5], 8.17. Moreover, the results for the pKi in data set [3] and in [4] were less than 5.00 and 8.11, respectively. The Synergy in the data set listed under Homo sapiens worked out at 1.8.
